Experiment: Aqueous solubility of dyes and dye composition
Type: physicochemical
Details: aqueous solubility at 20° C. and pH 9.5
Experimental: The aqueous solubility of Composition (1), Dye (A) and Dye (B) at 20° C. and pH 9.5 is: […]

COc1cc(N=Nc2cccc(S(=O)(=O)O)c2)ccc1NC(=O)Nc1ccc(N=Nc2cccc(S(=O)(=O)O)c2)cc1OC [Dye (A), CI Direct Yellow 132]
Solubility (%): 10.7%

Source: patent publication US6551390B1, “Composition containing two different disazodyestuffs useful for ink jet recording” (Avecia Limited, priority 1998, dated 2003)
